Literature values as cited in article PMC3815949 (Microbial biotechnology, 2009).

Test system: DmpA
Type: biochemical, Brucella anthropi

N[C@@H](Cc1cnc[nH]1)C(=O)O [L-histidine]
Km: ~51 mM

NCCC(N)=O [H-β-Ala-NH2]
Km: ~1.5 mM
